Test results reported in US20020199220A1, “Methods to propagate plants via somatic embryogenesis and to transfer genes into ornamental statice and other members of the family plumbaginaceae” (priority 2001, published 2002).
Where “and” joins values, the source holds several entries; their conditions need not be identical. Equal entries are not always repeated.

Experiments:
Type in all cases: cell-based
[1] = test system: L. bellidifolium cotyledon explants; assay: Induction of embryogenic calli from cotyledon explants; conditions: for Callus Description / % Response / Number of Explants responded/cultured: MS medium with 1 mg/l 2,4-D, 0.1 mg/l kinetin; for Callus Description / % Response: 30 days after culture; for % Response: mean of experiments; for Number of Explants responded/cultured: scored 30 days after culture, Exp.1 to 3
Description: (§1) Seeds of perennial statice Limoniurn bellidifolium (Gouan) Durmort.(Statice caspia Willd.) and annual statice Linonium sinuatum (L.) Mill. Cv. Soiree, and other Limonium species were purchased from Park Seed Co. (Greenwood, S.C., U.S.A.). Seeds were surface-sterilized by rinsing in 70% (v/v) ethanol for 30 seconds and in 10% (v/v) commercial bleach for 10 minutes. Following this treatment, they were washed five times in sterile distilled water and germinated under light on half-strength Murashige and Skoog basal medium (MS, Murashige and Skoog, 1962) containing 1.5% (wt./v) sucrose and 0.8% (wt./v) agar (Agar-agar, Sigma, St. Louis, Mo., U.S.A.). The pH was adjusted to 5.8 prior to autoclaving for 5 days to provide the explants.
(§2) Cotyledon and hypocotyl explants were dissected from 5-day old seedlings. The hypocotyls were cut 1 mm below the cotyledonary node and 1 mm above the hypocotyl-root junction to provide 2 mm-long explants. The cotyledons were separated from the cotyledon-petiole junction and halved into 2 to 3 mm long pieces. The explants were cultured, 10 per 100×15 mm Petri plate, on MS medium containing MS mineral salts, B5 vitamins (Gamborg et al. 1968), sucrose (2, 3 or 4% wt./v), 0.1 mg.l^−1 kinetin and 1, 2 or 5 mg.l^−1 2,4-D, pH 5.8. The plates were sealed with parafilm (American National Can, WI) and incubated at 25° C. under 16/8 h (day/night) light regime (PPFD 46 μmol.quanta.m^−2.s^−1, cool white fluorescent lamps). The explants were subcultured every two weeks on the same media.
(§3) Cotyledon explants from L. bellidifolium and L. sinuatum initiated callus within 7-10 days in culture on media containing 1 mg.l^−1 2,4-D and various levels of sucrose. Embryogenic callus was characterized by globular structures, smooth and shiny texture and creamy color. On media containing 1 mg.l^−1 2,4-D and 0.1 mg.l^−1 kinetin, increasing sucrose concentrations increased the induction of well developed embryogenic calli, 4% sucrose being the optimum (see the following Table 1). Some of the cotyledon explants respond with direct somatic embryogenesis without a callus phase. The embryogenic calli produced repetitive globular embryos on the same induction media for both species. Medium containing 4% sucrose was also optimum to induce embryogenic calli from hypocotyl explants (79% response for 28 explants cultured for L. bellidifolium and 86% response for 21 explants cultured for L. sinuatum). On an average, 2-3 somatic embryos developed per explant weekly. At 2% sucrose, friable non-embryogenic callus grew along with less defined embryogenic calli on the same explant.

[2] = test system: L. sinuatum cotyledon explants; assay: as above; conditions: for Callus Description / % Response / Number of Explants responded/cultured: MS medium with 1 mg/l 2,4-D, 0.1 mg/l kinetin; for Callus Description / % Response: 30 days after culture; for % Response: mean of experiments; for Number of Explants responded/cultured: scored 30 days after culture, Exp.1 to 3
Description: as §1, §2, §3

[3] = test system: L. bellidifolium hypocotyl explants; assay: Induction of embryogenic calli from hypocotyl explants; conditions: medium containing 4% sucrose; 28 explants cultured
Description: as §2
(§4) Cotyledon explants from L. bellidifolium and L. sinuatum initiated callus within 7-10 days in culture on media containing 1 mg.l^−1 2,4-D and various levels of sucrose. Embryogenic callus was characterized by globular structures, smooth and shiny texture and creamy color. On media containing 1 mg.l^−1 2,4-D and 0.1 mg.l^−1 kinetin, increasing sucrose concentrations increased the induction of well developed embryogenic calli, 4% sucrose being the optimum (see the following Table 1). Some of the cotyledon explants respond with direct somatic embryogenesis without a callus phase. […]

[4] = test system: L. sinuatum hypocotyl explants; assay: as above; conditions: medium containing 4% sucrose; 21 explants cultured
Description: as §2, §4

[5] = test system: somatic embryos from embryogenic calli derived from L. bellidifolium and L. sinuatum cotyledon and hypocotyl explants; assay: Maturation and germination of somatic embryos from cultured embryogenic calli; set-up: key to Germination: − = No response; + slow (21-30 days); ++ medium (15-20 days); ++++- Fast (14 days) with 100% maturation and germination; conditions: for somatic embryo morphology: no growth regulators; for Germination / Maturation: MS medium
Description: For maturation, somatic embryos at late-globular, heart and torpedo stages were subcultured on MS media containing 3% or 4% (wt./v) sucrose with or without 0.1 mg.l^−1 kinetin. Calli differentiating globular embryos were transferred to maturation medium, MS supplemented with 3 or 4% sucrose and 0 or 0.1 mg.l^−1 kinetin. Late globular, heart, torpedo and cotyledonary stages differentiated in these media and with faster and higher response on media with 4% sucrose compared to that on 3% sucrose (see Table 2).
Supplementation of this medium with 0.1 mg/l kinetin induced embryo maturation and germination within 10 to 14 days of subculture compared to more than 21 days on media lacking kinetin.

[6] = media containing 1 mg/l 2,4-D and various levels of sucrose

O=C(O)COc1ccc(Cl)cc1Cl [2,4-D, reference compound]
time to callus initiation in culture [1, 6]: 7 to 10 days
time to callus initiation in culture [2, 6]: 7 to 10 days

OC[C@H]1O[C@@](CO)(O[C@H]2O[C@H](CO)[C@@H](O)[C@H](O)[C@H]2O)[C@@H](O)[C@@H]1O [sucrose]
Callus Description ([1]; 2% sucrose): W,E,F
% Response ([1]; 2% sucrose): 75%
Number of Explants responded/cultured ([1]; 2% sucrose): 15/24 and 23/28 and 53/67
Callus Description ([1]; 3% sucrose): W/G,E(g,t)
% Response ([1]; 3% sucrose): 79%
Number of Explants responded/cultured ([1]; 3% sucrose): 46/58 and 53/62 and 48/68
Callus Description ([1]; 4% sucrose): W/G,E(g,h,t)
% Response ([1]; 4% sucrose): 89%
Number of Explants responded/cultured ([1]; 4% sucrose): 29/32 and 1/26 and 39/41
Callus Description ([2]; 2% sucrose): W,E,F
% Response ([2]; 2% sucrose): 72%
Number of Explants responded/cultured ([2]; 2% sucrose): 12/19 and 38/44 and 13/20
Callus Description ([2]; 3% sucrose): W/G,B(g,t)
% Response ([2]; 3% sucrose): 79%
Number of Explants responded/cultured ([2]; 3% sucrose): 50/61 and 49/74 and 61/69
Callus Description ([2]; 4% sucrose): W/G,B(g,h,t)
% Response ([2]; 4% sucrose): 88%
Number of Explants responded/cultured ([2]; 4% sucrose): 42/48 and 32/39 and 37/40
response (induction of embryogenic calli) [3]: 79%
response (induction of embryogenic calli) [4]: 86%
somatic embryo morphology ([5]; 3% sucrose): abnormally long roots with poor shoot development
Germination ([5]; 3% sucrose, kinetin 0.0 mg/l): −
Maturation ([5]; 3% sucrose, kinetin 0.0 mg/l): + (+ slow (21-30 days))
Germination ([5]; 3% sucrose, kinetin 0.1 mg/l): ++ (++ medium (15-20 days))
Maturation ([5]; 3% sucrose, kinetin 0.1 mg/l): ++ (++ medium (15-20 days))
Germination ([5]; 4% sucrose, kinetin 0.0 mg/l): + (+ slow (21-30 days))
Maturation ([5]; 4% sucrose, kinetin 0.0 mg/l): ++ (++ medium (15-20 days))
Germination ([5]; 4% sucrose, kinetin 0.1 mg/l): ++++ (++++- Fast (14 days) with 100% maturation and germination)
Maturation ([5]; 4% sucrose, kinetin 0.1 mg/l): ++++ (++++- Fast (14 days) with 100% maturation and germination)
somatic embryo morphology ([5]; sucrose increased to 4%): inhibited this abnormal rooting
